From patent US20240383905A1, “FGFR INHIBITORS AND METHODS OF USE THEREOF” (3H PHARMACEUTICALS CO., LTD., priority 2021, published 2024)

Assays:
FGFR2 = target: T1, FGFR2 (Homo sapiens, UniProt P21802); assay: FGFR2 Biochemical Caliper Assay (KinEASE-TK kit); conditions: 0.07 nM FGFR2; compound incubated with protein 10 min, reaction 45 min at RT; read-out: FGFR2 Cliper IC50
T1 construct: purchased Carna 08-134

FGFR1 = target: T2, FGFR1 (Homo sapiens, UniProt P11362); assay: FGFR1 Biochemical Caliper Assay (KinEASE-TK kit); conditions: ratio FGFR1/FGFR2 of the biochemical assay
T2 construct: purchased Carna 08-133
How it was run: (§1)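 KinEASE-TK HTRF readout: enzyme at 0.2 nM (FGFR1, FGFR3) preincubated 10 min at RT with 10-point 3-fold compound dilutions before TK-substrate/ATP start.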

FGFR3 = target: T3, FGFR3 (Homo sapiens, UniProt P22607); assay: FGFR3 Biochemical Caliper Assay (KinEASE-TK kit); conditions: ratio FGFR3/FGFR2 of the biochemical assay
T3 construct: purchased Carna 08-135
How it was run: as §1

SNU16 cells = assay: SNU16 Cancer Cell Line Proliferation Assay (CellTiter-Glo); type: cell-based; conditions: Homo sapiens, SNU-16, 72 h
How it was run: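 SNU16 cells at 5000/well exposed to 9-point 3-fold serial compound dilutions (DMSO control) for 72 h at 37 °C, 5% CO2. Viability read by luminescence; IC50 calculated from dose-response.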

T3 sequence (P22607 23-806): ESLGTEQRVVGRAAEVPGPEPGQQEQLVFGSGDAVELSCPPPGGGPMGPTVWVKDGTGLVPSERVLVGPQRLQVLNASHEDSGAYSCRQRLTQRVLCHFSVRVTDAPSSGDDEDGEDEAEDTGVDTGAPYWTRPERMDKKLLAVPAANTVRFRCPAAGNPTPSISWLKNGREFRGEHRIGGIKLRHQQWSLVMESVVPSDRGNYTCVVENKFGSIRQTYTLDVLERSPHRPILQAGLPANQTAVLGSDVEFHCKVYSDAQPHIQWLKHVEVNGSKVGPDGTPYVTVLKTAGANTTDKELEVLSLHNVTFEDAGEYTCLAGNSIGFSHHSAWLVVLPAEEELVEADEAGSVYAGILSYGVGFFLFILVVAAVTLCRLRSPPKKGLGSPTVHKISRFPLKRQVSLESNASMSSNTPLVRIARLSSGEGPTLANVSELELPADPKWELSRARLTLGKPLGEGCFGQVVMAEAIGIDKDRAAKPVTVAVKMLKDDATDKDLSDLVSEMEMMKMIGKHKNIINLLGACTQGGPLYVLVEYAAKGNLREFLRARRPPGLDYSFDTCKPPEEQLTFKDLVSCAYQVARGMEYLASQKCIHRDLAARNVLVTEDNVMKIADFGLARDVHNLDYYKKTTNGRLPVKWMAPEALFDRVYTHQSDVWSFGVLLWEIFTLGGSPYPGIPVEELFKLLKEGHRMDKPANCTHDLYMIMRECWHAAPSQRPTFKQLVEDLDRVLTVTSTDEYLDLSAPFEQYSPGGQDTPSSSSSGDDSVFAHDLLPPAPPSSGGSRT
T2 sequence (P11362 22-822): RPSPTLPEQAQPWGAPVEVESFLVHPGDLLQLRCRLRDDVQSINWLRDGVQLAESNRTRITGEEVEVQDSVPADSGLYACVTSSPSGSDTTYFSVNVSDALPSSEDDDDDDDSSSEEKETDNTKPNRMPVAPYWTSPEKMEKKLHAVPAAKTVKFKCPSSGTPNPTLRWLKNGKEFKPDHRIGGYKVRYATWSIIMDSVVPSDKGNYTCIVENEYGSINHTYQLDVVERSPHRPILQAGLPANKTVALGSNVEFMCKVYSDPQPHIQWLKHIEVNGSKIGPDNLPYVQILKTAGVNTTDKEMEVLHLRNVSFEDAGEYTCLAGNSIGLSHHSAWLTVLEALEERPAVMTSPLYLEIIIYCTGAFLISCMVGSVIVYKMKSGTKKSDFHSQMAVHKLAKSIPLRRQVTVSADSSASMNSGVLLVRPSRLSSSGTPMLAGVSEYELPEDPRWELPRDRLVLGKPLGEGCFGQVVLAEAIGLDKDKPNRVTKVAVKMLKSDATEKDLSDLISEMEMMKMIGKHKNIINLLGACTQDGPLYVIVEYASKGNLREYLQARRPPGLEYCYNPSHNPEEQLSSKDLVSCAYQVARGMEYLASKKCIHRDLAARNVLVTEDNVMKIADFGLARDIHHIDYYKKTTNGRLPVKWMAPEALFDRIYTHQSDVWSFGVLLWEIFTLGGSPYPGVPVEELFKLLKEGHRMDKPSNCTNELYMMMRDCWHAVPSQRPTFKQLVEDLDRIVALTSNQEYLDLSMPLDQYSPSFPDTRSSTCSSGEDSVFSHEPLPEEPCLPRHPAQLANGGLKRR
T1 sequence (P21802 22-821): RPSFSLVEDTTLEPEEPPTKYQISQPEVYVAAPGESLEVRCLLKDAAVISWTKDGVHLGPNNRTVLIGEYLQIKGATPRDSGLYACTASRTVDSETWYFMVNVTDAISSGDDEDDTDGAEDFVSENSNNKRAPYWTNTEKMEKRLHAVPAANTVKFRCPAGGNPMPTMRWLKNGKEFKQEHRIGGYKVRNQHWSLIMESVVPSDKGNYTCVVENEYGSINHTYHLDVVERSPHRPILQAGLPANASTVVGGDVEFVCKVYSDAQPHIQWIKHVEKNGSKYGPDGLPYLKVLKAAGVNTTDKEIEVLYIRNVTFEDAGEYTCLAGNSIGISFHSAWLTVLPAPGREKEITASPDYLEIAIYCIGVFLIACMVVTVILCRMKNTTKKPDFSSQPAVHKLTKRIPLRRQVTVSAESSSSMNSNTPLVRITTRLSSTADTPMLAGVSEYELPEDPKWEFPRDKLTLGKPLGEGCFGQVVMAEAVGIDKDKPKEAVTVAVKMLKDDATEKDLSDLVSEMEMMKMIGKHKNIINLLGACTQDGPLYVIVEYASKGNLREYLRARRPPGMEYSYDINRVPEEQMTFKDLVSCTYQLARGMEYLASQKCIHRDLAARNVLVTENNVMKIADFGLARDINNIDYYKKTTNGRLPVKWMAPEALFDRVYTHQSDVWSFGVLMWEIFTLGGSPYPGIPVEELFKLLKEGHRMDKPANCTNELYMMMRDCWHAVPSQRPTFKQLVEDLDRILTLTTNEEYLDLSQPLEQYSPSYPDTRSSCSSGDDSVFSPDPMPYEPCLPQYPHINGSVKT

| SMILES | IC50 (FGFR2) [nM] | Selectivity FGFR1/FGFR2 (FGFR1) | Selectivity FGFR3/FGFR2 (FGFR3) | IC50 (SNU16 cells) [nM] |
| --- | --- | --- | --- | --- |
| C=C(C)C(=O)Nc1ccc(-c2nn3ncnc(N)c3c2-c2ccc(Oc3nccc(C)n3)c(F)c2)c(C)c1 [Compound 450] | > 10 | A+ (Selectivity of FGFR1/FGFR2 greater or equal to 500) | B (Selectivity of FGFR3/FGFR2 less than 100 but greater than or equal to 25) | ≤ 10 |
| C=C(F)C(=O)Nc1ccc(-c2nn3ncnc(N)c3c2-c2ccc(C(=O)NC3CC3(F)F)c(OC)c2)c(F)c1 (stereo not shown) [Compound 271] | < 5 | C (Selectivity of FGFR1/FGFR2 less than 200 but greater than or equal to 100) | B (Selectivity of FGFR3/FGFR2 less than 100 but greater than or equal to 25) | ≤ 10 |
| C=C(F)C(=O)Nc1ccc(-c2c(-c3ccc(Oc4nccc(C)n4)c(F)c3)c3c(N)ncc(C#N)c3n2C)cc1 [Compound 344, N-(4-(4-amino-7-cyano-3-(3-fluoro-4-((4-methylpyrimidin-2-yl)oxy)phenyl)-1-methyl-1H-pyrrolo[3,2-c]pyridin-2-yl)phenyl)-2-fluoroacrylamide] | < 5 | A+ (Selectivity of FGFR1/FGFR2 greater or equal to 500) | A (Selectivity of FGFR3/FGFR2 less than 150 but greater than or equal to 100) | ≤ 10 |
| C=CC(=O)Nc1ccc(-c2c(-c3ccc(C(=O)NC4CC(F)C4)c(OC)c3)c3c(N)ncc(C#N)c3n2C)cc1 (stereo not shown) [Compound 168, 4-(2-(4-acrylamidophenyl)-4-amino-7-cyano-1-methyl-1H-pyrrolo[3,2-c]pyridin-3-yl)-N-(3-fluorocyclobutyl)-2-methoxybenzamide] | < 5 | A+ (Selectivity of FGFR1/FGFR2 greater or equal to 500) | A+ (Selectivity of FGFR3/FGFR2 greater or equal to 150) | ≤ 10 |
| C=CC(=O)Nc1ccc(-c2c(-c3ccc(C(=O)NC4CCC4)c(OC)c3)c3c(N)ncc(C#N)c3n2CCOC)cc1 [Compound 59, 4-(2-(4-acrylamidophenyl)-4-amino-7-cyano-1-(2-methoxyethyl)-1H-pyrrolo[3,2-c]pyridin-3-yl)-N-cyclobutyl-2-methoxybenzamide] | < 5 | A (Selectivity of FGFR1/FGFR2 less than 500 but greater than or equal to 300) | A (Selectivity of FGFR3/FGFR2 less than 150 but greater than or equal to 100) | ≤ 10 |
| C=C(F)C(=O)Nc1ccc(-c2nn3ncnc(N)c3c2-c2ccc(C(=O)NCC3(F)CC3)c(OC)c2)cc1 [Compound 204, 4-(4-amino-6-(4-(2-fluoroacrylamido)phe-nyl)pyrazolo[5,1-f][1,2,4]triazin-5-yl)-N-((1-fluorocyclopropyl)methyl)-2-methoxybenzamide] | < 5 | A+ (Selectivity of FGFR1/FGFR2 greater or equal to 500) | A (Selectivity of FGFR3/FGFR2 less than 150 but greater than or equal to 100) | ≤ 10 |
| C=CC(=O)Nc1ccc(-c2c(-c3ccc(C(=O)NC4CC4)c(OC)c3)c3c(N)ncc(C#N)c3n2CCF)cc1 [Compound 236, 4-(2-(4-acrylamidophenyl)-4-amino-7-cyano-1-(2-fluoroethyl)-1H-pyrrolo[3,2-c]pyridin-3-yl)-N-cyclopropyl-2-methoxybenzamide] | < 5 | A+ (Selectivity of FGFR1/FGFR2 greater or equal to 500) | A (Selectivity of FGFR3/FGFR2 less than 150 but greater than or equal to 100) | ≤ 10 |
| C=C(F)C(=O)Nc1ccc(-c2nn3ncnc(N)c3c2-c2ccc(C(=O)NC34CC(F)(C3)C4)c(OC)c2)c(F)c1 [Compound 427, 4-(4-amino-6-(2-fluoro-4-(2-fluoroacryl-amido)phenyl)pyrazolo[5,1-f][1,2,4]triazin-5-yl)-N-(3-fluorobicyclo [1.1.1]pentan-1-yl)-2-methoxybenzamide] | < 5 | A+ (Selectivity of FGFR1/FGFR2 greater or equal to 500) | A (Selectivity of FGFR3/FGFR2 less than 150 but greater than or equal to 100) | ≤ 10 |
| C=CC(=O)Nc1ccc(-c2nn3ncnc(N)c3c2-c2ccc(Oc3nccc(C)n3)c(F)c2)cc1 [Compound 205, N-(4-(4-amino-5-(3-fluoro-4-((4-methylpyrimidin-2-yl)oxy)phenyl)pyrazolo [5,1-f][1,2,4]triazin-6-yl)phenyl)acrylamide] | < 5 | A+ (Selectivity of FGFR1/FGFR2 greater or equal to 500) | B (Selectivity of FGFR3/FGFR2 less than 100 but greater than or equal to 25) | ≤ 10 |
| C=CC(=O)Nc1ccc(-c2c(-c3ccc(Oc4nccc(C)n4)cc3)c3c(N)ncc(C#N)c3n2C)cc1 [Compound 69, N-(4-(4-amino-7-cyano-1-methyl-3-(4-((4-methylpyrimidin-2-yl)oxy)phenyl)-1H-pyrrolo[3,2-c]pyridin-2-yl)phenyl)acrylamide] | < 5 | A (Selectivity of FGFR1/FGFR2 less than 500 but greater than or equal to 300) | B (Selectivity of FGFR3/FGFR2 less than 100 but greater than or equal to 25) | ≤ 10 |
| C=CC(=O)Nc1ccc(-c2c(-c3cc(F)c(Oc4ncc(F)c(C)n4)c(F)c3)c3c(N)ncc(C#N)c3n2C)cc1 [Compound 497] | < 5 | A+ (Selectivity of FGFR1/FGFR2 greater or equal to 500) | A+ (Selectivity of FGFR3/FGFR2 greater or equal to 150) | ≤ 10 |
| C=CC(=O)Nc1ccc(-c2nn3ncnc(N)c3c2-c2ccc(C(=O)NC3CCCC3)c(OC)c2)cc1 [Compound 55, 4-(6-(4-acrylamidophenyl)-4-aminopyrazolo[5,1-f] [1,2,4]triazin-5-yl)-N-cyclopentyl-2-methoxybenzamide] | < 5 | A+ (Selectivity of FGFR1/FGFR2 greater or equal to 500) | A (Selectivity of FGFR3/FGFR2 less than 150 but greater than or equal to 100) | ≤ 10 |
| C=CC(=O)Nc1ccc(-c2c(-c3ccc(C(=O)NC4CC4)c(OC)c3)c3c(N)ncc(C#N)c3n2C)c(F)c1 [Compound 157, 4-(2-(4-acrylamido-2-fluorophenyl)-4-amino-7-cyano-1-methyl-1H-pyrrolo[3,2-c]pyridin-3-yl)-N-cyclopropyl-2-methoxybenzamide] | < 5 | B (Selectivity of FGFR1/FGFR2 less than 300 but greater than or equal to 200) | B (Selectivity of FGFR3/FGFR2 less than 100 but greater than or equal to 25) | ≤ 10 |
| C=C(F)C(=O)Nc1ccc(-c2c(-c3ccc(C(=O)NC4CCC4)cc3)c3c(N)ncc(C#N)c3n2C)cc1 [Compound 97, 4-(4-amino-7-cyano-2-(4-(2-fluoroacrylamido)phe-nyl)-1-methyl-1H-pyrrolo[3,2-c]pyridin-3-yl)-N-cyclobutylbenzamide] | 5 to 10 | A+ (Selectivity of FGFR1/FGFR2 greater or equal to 500) | A+ (Selectivity of FGFR3/FGFR2 greater or equal to 150) | ≤ 10 |
| C=C(F)C(=O)Nc1ccc(-c2nn3ncnc(N)c3c2-c2ccc(C(=O)NC3(C(F)(F)F)CC3)c(OC)c2)c(OC)c1 [Compound 415] | < 5 | B (Selectivity of FGFR1/FGFR2 less than 300 but greater than or equal to 200) | B (Selectivity of FGFR3/FGFR2 less than 100 but greater than or equal to 25) | ≤ 10 |
| C=CC(=O)Nc1ccc(-c2c(-c3ccc(C(=O)NC4CCC4)cc3)c3c(N)ncc(C#N)c3n2C)cc1 [Compound 65, 4-(2-(4-acrylamidophenyl)-4-amino-7-cyano-1-methyl-1H-pyrrolo[3,2-c]pyridin-3-yl)-N-cyclobutylbenzamide] | < 5 | A (Selectivity of FGFR1/FGFR2 less than 500 but greater than or equal to 300) | A+ (Selectivity of FGFR3/FGFR2 greater or equal to 150) | ≤ 10 |
| C=CC(=O)Nc1ccc(-n2nc3c(=O)[nH]nc(N)c3c2-c2ccc(Oc3nccc(C)n3)c(OC)c2)cc1 [Compound 134, N-(4-(4-amino-3-(3-methoxy-4-((4-methylpyrimidin-2-yl)oxy)phenyl)-7-oxo-6,7-dihydro-2H-pyrazolo[3,4-d]pyridazin-2-yl)phenyl)acrylamide] | < 5 | C (Selectivity of FGFR1/FGFR2 less than 200 but greater than or equal to 100) | A+ (Selectivity of FGFR3/FGFR2 greater or equal to 150) | > 50 |
| C=CC(=O)Nc1ccc(-c2nn3ncnc(N)c3c2-c2ccc(C(=O)C3CCCCC3)c(OC)c2)cc1 [Compound 431, N-(4-(4-amino-5-(4-(cyclohexanecarbonyl)-3-methoxyphenyl)pyrazolo[5,1-f][1,2,4]triazin-6-yl)phenyl) acrylamide] | > 10 | A+ (Selectivity of FGFR1/FGFR2 greater or equal to 500) | A+ (Selectivity of FGFR3/FGFR2 greater or equal to 150) | ≤ 10 |
| C=CC(=O)Nc1ccc(-n2nc3c(=O)[nH]nc(N)c3c2-c2ccc(Oc3cccc(C)n3)c(OC)c2)cc1 [Compound 115] | 5 to 10 | C (Selectivity of FGFR1/FGFR2 less than 200 but greater than or equal to 100) | A+ (Selectivity of FGFR3/FGFR2 greater or equal to 150) | 10 to 50 |
